Measurements reported in US7160874B2, “Phenylalanine derivatives” (Ajinomoto Co., Inc., priority 1999, dated 2007).

How the values were obtained:
integrin α4β1 = target: T1, integrin α4β1 (Homo sapiens, UniProt P05556+P13612); assay: VCAM antagonist activity (VCAM-1/α4β1 binding assay); assay type: cell-based; conditions: Jurkat cells binding to VCAM-1; read-out: VCAM antagonistic activity (IC50) α4β1
T1 construct: cell strain Jurkat (ATCC TIB-152) of human T cells, known to express integrin α4β1; host or cells: Jurkat (human T cell line)
T1 sequence (P05556 21-798, one chain of several): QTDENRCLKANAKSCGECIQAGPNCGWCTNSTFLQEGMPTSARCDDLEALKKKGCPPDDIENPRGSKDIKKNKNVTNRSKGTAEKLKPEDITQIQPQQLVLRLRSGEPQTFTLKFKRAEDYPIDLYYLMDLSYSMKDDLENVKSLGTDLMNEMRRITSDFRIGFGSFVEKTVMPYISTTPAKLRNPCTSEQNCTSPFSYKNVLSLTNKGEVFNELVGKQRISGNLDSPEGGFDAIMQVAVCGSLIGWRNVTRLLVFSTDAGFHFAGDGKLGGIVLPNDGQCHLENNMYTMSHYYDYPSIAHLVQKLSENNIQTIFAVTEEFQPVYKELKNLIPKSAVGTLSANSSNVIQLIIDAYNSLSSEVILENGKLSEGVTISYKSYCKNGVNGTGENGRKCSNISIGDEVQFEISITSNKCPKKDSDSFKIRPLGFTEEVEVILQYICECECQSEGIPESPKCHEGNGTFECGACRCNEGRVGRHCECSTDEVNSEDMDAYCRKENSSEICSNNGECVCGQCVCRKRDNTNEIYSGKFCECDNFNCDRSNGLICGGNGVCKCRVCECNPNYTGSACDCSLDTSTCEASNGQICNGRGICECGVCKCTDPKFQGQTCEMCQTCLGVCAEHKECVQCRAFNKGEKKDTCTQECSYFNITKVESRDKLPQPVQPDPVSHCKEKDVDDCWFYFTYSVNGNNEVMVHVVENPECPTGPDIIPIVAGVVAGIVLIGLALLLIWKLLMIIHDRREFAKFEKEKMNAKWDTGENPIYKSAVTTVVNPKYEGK
Experimental: (Test Example) VCAM Antagonist Activity (VCAM-1/α4β1 Binding Assay):
The capacity of a test substance antagonistic to the binding of cell strain Jurkat (ATCC TIB-152) of human T cells, known to express integrin α4β1, to VCAM-1 was determined.
(§1) 100 μl/well of a solution (500 ng/ml) of recombinant human VCAM-1 (R & D systems) solution diluted with buffer A (0.1 M NaHCO3, pH 9.6) was added to a micro titer plate having 96 wells (Nunc Maxisorp). After the incubation at 4° C. overnight, unbound VCAM-1 was removed by washing once with PBS. After completion of the washing, a buffer (buffer B) obtained by diluting Block Ace® (Dainippon Pharmaceutical Co., Ltd.) with PBS to 1/4 concentration was added in an amount of 150 μl/well. After the incubation at room temperature for 1 hour, buffer B was removed and the plate was washed with PBS once.
Jurkat cells were washed with Dulbecco modified Eagle medium (SIGMA, hereinafter referred to as “DMEM”) twice and then incubated in DMEM containing 10 μg/ml of Calcein-AM (Wako Pure Chemical Industries, Ltd.) at 37° C. in dark place for 30 minutes to label with fluorescence. The cells were again suspended in a binding buffer (20 mM HEPES, DMEM containing 0.1% BSA).
(§2) 50 μl of a test substance of various concentrations obtained by the dilution with the binding buffer was added to the plate. Immediately thereafter, 50 μl (final volume: 100 μl/well) of the fluorescent Jurkat cells (4×10^6 cells/ml) were added thereto, and they were incubated at room temperature for 30 minutes. After the shaking on a plate shaker (IKA MTS-4) at 800 rpm for 30 seconds, the solution was immediately removed to remove the unbound cells. The fluorescence quantity of the bound cells remaining in the wells was determined with a fluorescent plate reader (Wallac 1420 ARVO multi-label counter) (filter excitation wave length: 485 nm, emission wave length: 535 nm). The fluorescent strength thus obtained is proportional to the number of Jurkat cells bound to VCAM-1 and remaining on the plate. The binding rate of each test material in various concentrations was determined while the fluorescent strength of the test material-free well was determined to be 100%. The concentration IC50 for the 50% binding inhibition was calculated.
(§3) The activities were classified into group A wherein IC50 was 0.02 μmol/l or below, group B wherein IC50 was higher than 0.02 μmol/l and not above 0.1 μmol/l, group C wherein IC50 was higher than 0.1 μmol/l and not above 2 μmol/l, and group D wherein IC50 was higher than 2 μmol/l and not above 10 μmol/l.

integrin α4β7 = target: T2, integrin α4β7 (Homo sapiens, UniProt P13612+P26010); assay: VCAM antagonistic activity (VCAM-1/α4β7 binding assay); assay type: cell-based; conditions: RPMI-8866 cells binding to VCAM-1; read-out: VCAM antagonistic activity (IC50) α4β7
T2 construct: lymphoma cell strain RPMI-8866 of human B cells, known to express integrin α4β7; endogenous in cells; host or cells: RPMI-8866 (human B lymphoma cell line)
T2 sequence (P13612 34-1032): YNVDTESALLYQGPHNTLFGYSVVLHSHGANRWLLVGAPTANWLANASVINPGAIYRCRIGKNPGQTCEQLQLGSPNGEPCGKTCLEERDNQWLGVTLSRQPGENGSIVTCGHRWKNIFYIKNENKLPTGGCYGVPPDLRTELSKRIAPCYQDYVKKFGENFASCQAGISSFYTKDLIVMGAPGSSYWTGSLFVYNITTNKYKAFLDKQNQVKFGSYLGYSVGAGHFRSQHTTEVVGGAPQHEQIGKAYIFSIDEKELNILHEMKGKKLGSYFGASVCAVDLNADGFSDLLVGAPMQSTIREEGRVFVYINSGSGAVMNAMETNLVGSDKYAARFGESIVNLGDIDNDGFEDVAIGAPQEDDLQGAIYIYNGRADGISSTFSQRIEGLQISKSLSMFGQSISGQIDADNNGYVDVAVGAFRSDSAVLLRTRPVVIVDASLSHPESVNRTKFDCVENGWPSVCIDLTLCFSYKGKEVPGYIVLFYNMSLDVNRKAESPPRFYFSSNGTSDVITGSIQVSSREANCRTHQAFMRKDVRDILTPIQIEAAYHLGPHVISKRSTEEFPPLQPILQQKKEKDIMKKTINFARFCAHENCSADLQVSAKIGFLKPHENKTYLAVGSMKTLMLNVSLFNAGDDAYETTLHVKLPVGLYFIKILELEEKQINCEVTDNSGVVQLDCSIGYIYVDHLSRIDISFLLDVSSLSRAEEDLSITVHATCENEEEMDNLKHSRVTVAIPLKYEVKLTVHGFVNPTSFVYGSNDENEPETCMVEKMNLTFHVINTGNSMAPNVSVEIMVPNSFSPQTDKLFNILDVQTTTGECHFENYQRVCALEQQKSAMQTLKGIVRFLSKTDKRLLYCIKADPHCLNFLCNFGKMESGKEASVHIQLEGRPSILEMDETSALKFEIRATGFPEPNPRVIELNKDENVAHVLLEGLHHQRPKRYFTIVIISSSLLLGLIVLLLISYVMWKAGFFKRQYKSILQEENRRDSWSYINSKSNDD
T2 sequence (P26010 20-798): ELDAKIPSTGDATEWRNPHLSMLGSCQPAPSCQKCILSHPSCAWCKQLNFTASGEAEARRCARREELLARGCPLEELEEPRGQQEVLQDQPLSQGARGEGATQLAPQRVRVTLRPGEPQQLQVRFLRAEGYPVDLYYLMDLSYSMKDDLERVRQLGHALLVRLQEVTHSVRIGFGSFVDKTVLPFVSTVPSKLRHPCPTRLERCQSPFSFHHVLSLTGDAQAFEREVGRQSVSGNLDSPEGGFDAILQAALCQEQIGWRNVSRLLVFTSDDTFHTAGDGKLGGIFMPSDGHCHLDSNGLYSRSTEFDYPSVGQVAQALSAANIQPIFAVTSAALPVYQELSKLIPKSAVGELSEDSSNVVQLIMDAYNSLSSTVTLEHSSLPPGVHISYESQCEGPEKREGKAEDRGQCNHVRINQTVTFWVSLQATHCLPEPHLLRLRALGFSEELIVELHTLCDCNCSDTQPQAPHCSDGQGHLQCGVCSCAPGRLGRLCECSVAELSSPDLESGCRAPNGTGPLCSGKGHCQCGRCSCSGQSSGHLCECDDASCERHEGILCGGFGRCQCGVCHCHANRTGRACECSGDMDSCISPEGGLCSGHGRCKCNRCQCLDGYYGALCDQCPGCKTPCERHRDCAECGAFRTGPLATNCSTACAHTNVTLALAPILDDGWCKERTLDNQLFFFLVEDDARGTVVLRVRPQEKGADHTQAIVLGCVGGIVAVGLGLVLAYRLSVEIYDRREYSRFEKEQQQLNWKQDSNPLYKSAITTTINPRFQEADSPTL
Experimental: (Test Example) VCAM Antagonistic Activity (VCAM-1/α4β7 Binding Assay):
The capacity of a test substance antagonistic to the binding of lymphoma cell strain RPMI-8866 of human B cells, known to express integrin α4β7, to VCAM-1 was determined.
as §1
RPMI-8866 cells were incubated in Dulbecco modified Eagle medium containing 10 μg/ml of Calcein-AM (Wako Pure Chemical Industries, Ltd.) (SIGMA, hereinafter referred to as “DMEM”) at 37° C. for 30 minutes to label with fluorescence. The cells were again suspended in a binding buffer (20 mM HEPES, DMEM containing 0.1% BSA) containing 4 mM of MnCl2.
as §2, with “RPMI-8866” for “Jurkat”
as §3

Compound	IC50 (integrin α4β1) [nM]	IC50 (integrin α4β7) [nM]
CCC(CC)(C(=O)N[C@@H](Cc1ccc(OCc2c(Cl)cccc2Cl)cc1)C(=O)O)C(=O)N1CC[C@H](O)C1 [Example 65]	100 to 2000	< 20
CCC(CC)(C(=O)N[C@@H](Cc1ccc(OCc2c(Cl)cccc2Cl)cc1)C(=O)O)C(=O)N1CC[C@@H](NC(=O)C(F)(F)F)C1 [Example 63]	100 to 2000	20 to 100
CCC(CC)(C(=O)N[C@@H](Cc1ccc(NC(=O)c2cc(OC)ccc2Br)cc1)C(=O)O)C(=O)N1CCCC1 [Example 99]	20 to 100	20 to 100
CCC(CC)(C(=O)N[C@@H](Cc1ccc(NC(=O)c2nc(SC)ncc2Cl)cc1)C(=O)O)C(=O)N1CCCC1 [Example 94, N-[2-(pyrrolidine-1-ylcarbonyl)-2-ethyl-butanoyl]-4-({[5-chloro-2-(methylthio)pyrimidine-4-yl]carbonyl}amino)-L-phenylalanine]	20 to 100	< 20
CCC(CC)(C(=O)N[C@@H](Cc1ccc(OCc2c(Cl)cccc2Cl)cc1)C(=O)O)C(=O)N1CCC[C@@H]1C(N)=O [Example 70]	20 to 100	< 20
CCC(CC)(C(=O)N[C@@H](Cc1ccc(NC(=O)c2cc(F)c(F)cc2Cl)cc1)C(=O)O)C(=O)N1CCCC1 [Example 95]	20 to 100	< 20
O=C(O)[C@H](Cc1ccc(OCc2c(Cl)cccc2Cl)cc1)NC(=O)C1(C(=O)N2CCN(c3ccc(O)cc3)CC2)CCCC1 [Example 9]	100 to 2000	100 to 2000
CN(C)C(=O)C1(C(=O)N[C@@H](Cc2ccc(NC(=O)c3c(Cl)cccc3Cl)cc2)C(=O)O)CC1 [Example 90, N-[1-(N,N-dimethylaminocarbonyl)-cyclopropane-1-ylcarbonyl]-4-{[2,6-dichlorophenylcarbonyl]amino}-L-phenylalanine]	100 to 2000	20 to 100
CCC(CC)(C(=O)N[C@@H](Cc1ccc(NC(=O)c2nc(N3CCCCC3)ncc2Cl)cc1)C(=O)O)C(=O)N1CCCC1 [Example 482]	100 to 2000	< 20
C#CCn1c(=O)n(-c2ccc(C[C@H](NC(=O)C(CC)(CC)C(=O)N3CCCC3)C(=O)O)cc2)c(=O)c2ccccc21 [Example 102]	100 to 2000	< 20
CCC(CC)(C(=O)N[C@@H](Cc1ccc(NC(=O)c2snnc2-c2ccccc2)cc1)C(=O)O)C(=O)N1CCCC1 [Example 93]	100 to 2000	< 20
CCC(CCOC)(C(=O)NC(Cc1ccc(OCc2c(Cl)cccc2Cl)cc1)C(=O)O)C(=O)N1CCCC1 (mixture of isomers) [Example 43]	100 to 2000	< 20
CCC(CC)(C(=O)N[C@@H](Cc1ccc(OCc2c(Cl)cccc2Cl)cc1)C(=O)O)C(=O)N1C[C@H](O)C[C@H]1C(=O)OC [Example 46]	100 to 2000	< 20
CCC(CC)(C(=O)N[C@@H](Cc1ccc(NC(=O)c2nc(N3CCCC3)ncc2Cl)cc1)C(=O)O)C(=O)N1CCCC1 [Example 481]	20 to 100	< 20
CCC(CC)(C(=O)N[C@@H](Cc1ccc(NC(=O)c2c(Cl)cccc2Cl)cc1)C(=O)O)C(=O)N1CCCC1 [Example 91, N-[2-(pyrrolidine-1-ylcarbonyl)-2-ethyl-butanoyl]-4-{[(2,6-dichlorophenyl)carbonyl]amino}-L-phenylalanine]	< 20	< 20
O=C1CCN(C(=O)C2(C(=O)N[C@@H](Cc3ccc(OCc4c(Cl)cccc4Cl)cc3)C(=O)O)CC2)C1 [Example 59]	100 to 2000	20 to 100
CCC(CC)(C(=O)N[C@@H](Cc1ccc(OCc2c(Cl)cccc2Cl)cc1)C(=O)O)C(=O)N1CCOCC1 [Example 34]	100 to 2000	20 to 100
CCC(CC)(C(=O)N[C@@H](Cc1ccc(OCc2c(Cl)cccc2Cl)cc1)C(=O)O)C(=O)N1CCSCC1 [Example 36]	100 to 2000	20 to 100
CCC(CC)(C(=O)N[C@@H](Cc1ccc(NC(=O)c2nc([S+](C)[O-])ncc2Cl)cc1)C(=O)O)C(=O)N1CCCC1 (stereo partly drawn) [Example 478, N-[2-(pyrrolidine-1-ylcarbonyl)-2-ethyl-butanoyl]-4-({[5-chloro-2-(methylsulfinyl)pyrimidine-4-yl]carbonyl}amino)-L-phenyl-alanine]	20 to 100	< 20
